The results in this text go back to EP0937779A2, “Cell damage marker” (ORIENTAL YEAST CO., LTD., priority 1998, dated 1999).

Structures are written as SMILES. Read-outs that look alike come from different tables or passages of the source.

Common to all, as to assay type: biochemical
In experiment [1] the target is PGAM-B standard (based on pooled sera) (Homo sapiens, UniProt P18669). Nature of the experiment: Effect of potassium tetrathionate on PGAM-B, automatic analysis method (NADH reduction rate assay). To be noted: for remaining activity at 1900 µM: final potassium tetrathionate concentration 1.9 mM; for remaining activity at 1900 µM / remaining activity at 3800 µM / remaining activity at 7600 µM: 5-min reaction, read-out: Effect of potassium tetrathionate over PGAM-B (residual activity, 0 mM = 100); for remaining activity at 3800 µM: final potassium tetrathionate concentration 3.8 mM; for remaining activity at 7600 µM: final potassium tetrathionate concentration 7.6 mM. How it is done: (§1) The reagent 1 (R-1; 250 µl) was mixed with a culture medium sample (5 µl), and the resulting mixture was then left to stand for 5 minutes. By subsequently using the reagent 2 (R-2), the PGAM activity was assayed.
(§2) Because the reagent 2 (R-2) contained glycerate-3-P (substrate), the reaction was initiated by adding 41 µl of the reagent 2. About 1.5 minutes after the addition of the reagent 2, the assay was started.
(§3) By using an automatic analyzer of Hitachi 7150 and by presetting the assay code to RATE-A: 32-39 and the assay temperature to 37 °C, the decrease of absorbance A at 340 nm was determined on the basis of the reduction of NADH for about 1.5 minutes. Additionally, a sub-wave length was set at 405 nm for the determination. Furthermore, the value of a conventionally known cell damage marker LDH (lactate dehydrogenase) is shown concurrently.
(§4) Prior to the assay of B-PGAM in the cell culture medium, the effect of potassium tetrathionate on PGAM-B and PGAM-M was examined by the automatic analysis method. As the sample, a type-B standard and a type-M standard (both based on pooled sera) were used. These standards were diluted with physiological saline to prepare 1/1 to 1/8 samples. Various concentrations of potassium tetrathionate were added to these samples for 5-min reaction, and subsequently, the amounts of the type-B and type-M PGAMs were determined by utilizing the automatic analysis method.
(§5) By using the reagents of Example 2, the amounts of PGAM-B and PGAM-M were individually determined by the automatic analysis method, and the results are shown below in Table 4. […]

Experiment [2] concerns the target PGAM-M standard (based on pooled sera) (Homo sapiens, UniProt P15259). Description: Effect of potassium tetrathionate on PGAM-M, automatic analysis method (NADH reduction rate assay). How it is done:
as §1, §2, §3, §4, §5

For a further experiment, the target named is type-M isozyme (Homo sapiens, UniProt P15259). Nature of the experiment: Inhibition experiment over purified PGAM isozymes, type-M. Particulars: tetrathionic acid used as the PGAM inhibitor. The source says: (§6) The method for assaying PGAM in accordance with the invention will now be described about the case of the type-B isozyme. The method for assaying the type-B isozyme comprises treating a sample with a PGAM inhibitor to inactivate specific isozymes and assaying the remaining PGAM activity. […] By adding tetrathionic acid to serum to inactivate the type-M isozyme and subsequently assaying the residual PGAM activity, therefore, the type-B isozyme can be assayed separately.
(§7) At an inhibition experiment over purified PGAM isozymes, only 50 % of the type-MB isozyme is inactivated through the treatment with tetrathionic acid, so 50 % of the activity remains. Because the PGAM activity in normal serum and brain tissue is nearly totally derived from the type-B isozyme in a practical sense, the residual activity of the type-MB isozyme is negligible in biological samples.

The target of another experiment is type-B isozyme (Homo sapiens, UniProt P18669). Description: Inhibition experiment over purified PGAM isozymes, type-B. Particulars: tetrathionic acid used as the PGAM inhibitor.
Description: as §6, §7

For another experiment, the target named is type-MB isozyme (Homo sapiens, UniProt P15259). Description: Inhibition experiment over purified PGAM isozymes, type-MB. Particulars: treatment with tetrathionic acid.
Description: as §6, §7

The mark [3] stands for this setting: dilution ratio 1/1, 0 mM = 100 (183U/L).
Where [4] appears, read: dilution ratio 1/2, 0 mM = 100 (91U/L).
The mark [5] stands for this setting: dilution ratio 1/4, 0 mM = 100 (46U/L).
The mark [6] stands for this setting: dilution ratio 1/8, 0 mM = 100 (22U/L).

Sequence of PGAM-B standard (based on pooled sera) (P18669 whole entry): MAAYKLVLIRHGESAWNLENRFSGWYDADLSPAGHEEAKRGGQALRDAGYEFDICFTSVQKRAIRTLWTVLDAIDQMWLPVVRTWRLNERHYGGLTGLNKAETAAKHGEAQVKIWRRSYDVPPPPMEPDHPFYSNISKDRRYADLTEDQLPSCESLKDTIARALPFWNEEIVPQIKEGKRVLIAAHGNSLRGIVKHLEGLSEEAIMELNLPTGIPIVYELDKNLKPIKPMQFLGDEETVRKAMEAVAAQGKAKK
Sequence of PGAM-M standard (based on pooled sera) (P15259 whole entry): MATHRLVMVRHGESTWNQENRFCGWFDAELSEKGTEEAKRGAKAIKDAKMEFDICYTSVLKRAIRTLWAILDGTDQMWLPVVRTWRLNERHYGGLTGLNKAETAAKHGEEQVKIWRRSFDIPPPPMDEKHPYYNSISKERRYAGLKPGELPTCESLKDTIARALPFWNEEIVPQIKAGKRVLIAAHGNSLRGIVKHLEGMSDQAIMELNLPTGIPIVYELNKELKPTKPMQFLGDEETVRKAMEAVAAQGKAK
Sequence of type-B isozyme (P18669 whole entry): as the sequence (P18669 whole entry) above
Sequence of type-M isozyme (P15259 whole entry): as the sequence (P15259 whole entry) above
Sequence of type-MB isozyme (P15259 whole entry): as above
Sequence of type-MB isozyme (P18669 whole entry, further chain): as the sequence (P18669 whole entry) above

As for `O=S(=O)([O-])SSS(=O)(=O)[O-].[K+].[K+]` [potassium tetrathionate], the remaining activity at 1900 µM in experiment [1] (setting [3]) turned out to be 98%; in experiment [1] (setting [4]), 98%; in experiment [1] (setting [5]), 97%; in experiment [1] (setting [6]), 93%; in experiment [2] (final potassium tetrathionate concentration 1.9 mM, dilution ratio 1/1, 5-min reaction, 0 mM = 100 (2727U/L), read-out: Effect of potassium tetrathionate over PGAM-M (residual activity, 0 mM = 100)), 0%. Besides, the remaining activity at 3800 µM was determined as 92% in experiment [1] (setting [3]); 91% in experiment [1] (setting [4]); 86% in experiment [1] (setting [5]); 93% in experiment [1] (setting [6]); 0% in experiment [2] (final potassium tetrathionate concentration 3.8 mM, dilution ratio 1/1, 5-min reaction, 0 mM = 100 (2727U/L), read-out: Effect of potassium tetrathionate over PGAM-M (residual activity, 0 mM = 100)). The remaining activity at 7600 µM is 81% in experiment [1] (setting [3]); 80% in experiment [1] (setting [4]); 59% in experiment [1] (setting [5]); 75% in experiment [1] (setting [6]); 0% in experiment [2] (final potassium tetrathionate concentration 7.6 mM, dilution ratio 1/1, 5-min reaction, 0 mM = 100 (2727U/L), read-out: Effect of potassium tetrathionate over PGAM-M (residual activity, 0 mM = 100)). Besides, in experiment [1] (summary of Table 4), the “type-B isozyme influenced by potassium tetrathionate (summary in words)” value was “absolutely never influenced”. Besides, the “type-M isozyme inactivated with potassium tetrathionate (summary in words)” value in experiment [2] (summary of Table 4) is listed as “specifically inactivated”.

For the molecule `O=S(=O)(O)SSS(=O)(=O)O` [tetrathionic acid], the type-M isozyme inactivated on type-M isozyme is ~100%. Moreover, the “type-B isozyme inactivated (in words)” value on type-B isozyme is on record as “hardly inactivated”. Further, on type-MB isozyme, the “activity of the type-MB isozyme that remains” value was determined as 50%.
